Measurements taken from patent US7417156B2, “Orally active, antimalarial, anticancer, artemisinin-derived trioxane dimers” (Johns Hopkins University, priority 2002, dated 2008).
Read-outs that look alike come from different tables or passages of the source.

Experiments:
IGROVI = test: NCI 60 cell line panel screen (SRB); format: cell-based, human
MALME-3M = test: NCI 60 cell line panel screen (SRB); format: cell-based, human
MDA-MB-435 = test: NCI 60 cell line panel screen (SRB); format: cell-based, human
PC-3 = test: NCI 60 cell line panel screen (SRB); format: cell-based, human
MCF7 = test: NCI 60 cell line panel screen (SRB); format: cell-based, human
M14 = test: NCI 60 cell line panel screen (SRB); format: cell-based, human
60 cell line panel = format: cell-based
BT-549 = test: NCI 60 cell line panel screen (SRB); format: cell-based, human
MDA-MB231/ATCC = test: NCI 60 cell line panel screen (SRB); format: cell-based, human
NCI-H522 = test: NCI 60 cell line panel screen (SRB); format: cell-based, human
A549/ATCC = test: NCI 60 cell line panel screen (SRB); format: cell-based, human
NCI-H322M = format: cell-based
UO-31 = test: NCI 60 cell line panel screen (SRB); format: cell-based, human
HCT-15 = test: NCI 60 cell line panel screen (SRB); format: cell-based, human
SF-268 = test: NCI 60 cell line panel screen (SRB); format: cell-based, human
HCT-116 = test: NCI 60 cell line panel screen (SRB); format: cell-based, human
ACHN = test: NCI 60 cell line panel screen (SRB); format: cell-based, human
HT29 = test: NCI 60 cell line panel screen (SRB); format: cell-based, human
OVCAR-3 = test: NCI 60 cell line panel screen (SRB); format: cell-based, human
[1] = system: chloroquine-sensitive P. falciparum (NF54); test: Antimalarial activity in vitro, [3H]hypoxanthine incorporation; format: cell-based
NCI/ADR-RES = test: NCI 60 cell line panel screen (SRB); format: cell-based, human
[2] = mean value over the 60 cell line panel

CC1CCC2C(C)C(CC(CO)CC3OC4OC5(C)CCC6C(C)CCC(C3C)C46OO5)OC3OC4(C)CCC1C32OO4 (stereo not shown) [Compound 4, bis-trioxane primary alcohol]
Log10LC50 (IGROVI; IGROVI (Ovarian Cancer), LC50: PG=−50): −4.32 log10M
Log10TGI50 (IGROVI; IGROVI (Ovarian Cancer), TGI: PG=0): −4.68 log10M
Log10GI50 (IGROVI; Ovarian Cancer, IGROVI): −5.36
Log10LC50 (MALME-3M; MALME-3M (Melanoma), LC50: PG=−50): −4.28 log10M
Log10TGI50 (MALME-3M; MALME-3M (Melanoma), TGI: PG=0): −4.74 log10M
Log10GI50 (MALME-3M; Melanoma, MALME-3M): −7.31
Log10GI50 (MDA-MB-435; Breast Cancer, MDA-MB-435): −7.50
Log10LC50 (MDA-MB-435; MDA-MB-435 (Breast Cancer), LC50: PG=−50): −4.30 log10M
Log10TGI50 (MDA-MB-435; MDA-MB-435 (Breast Cancer), TGI: PG=0): −4.78 log10M
Log10LC50 (PC-3; PC-3 (Prostate Cancer), LC50: PG=−50): −4.34 log10M
Log10TGI50 (PC-3; PC-3 (Prostate Cancer), TGI: PG=0): −4.89 log10M
Log10GI50 (PC-3; Prostate Cancer, PC-3): <−8.00
Log10GI50 (MCF7; Breast Cancer, MCF7): −7.22
Log10LC50 (MCF7; MCF7 (Breast Cancer), LC50: PG=−50): −4.03 log10M
Log10TGI50 (MCF7; MCF7 (Breast Cancer), TGI: PG=0): −4.67 log10M
Log10LC50 (M14; M14 (Melanoma), LC50: PG=−50): −4.14 log10M
Log10TGI50 (M14; M-14 (Melanoma), TGI: PG=0): −4.68 log10M
Log10GI50 (M14; Melanoma, M14): −5.87
Log10GI50 Delta (60 cell line panel): 1.13
Log10GI50 Range (60 cell line panel): 3.20
Log10LC50 Delta (60 cell line panel; 60 cell line panel): 0.88
Log10LC50 Range (60 cell line panel; 60 cell line panel): 1.14
Log10TGI50 Delta (60 cell line panel; 60 cell line panel): 2.31
Log10TGI50 Range (60 cell line panel; 60 cell line panel): 3.18
growth inhibition and cytotoxicity in words (60 cell line panel; human cancer cell lines in general): strongly inhibitory but not cytotoxic
growth inhibition in words (60 cell line panel; leukemia cell line RPM 1-8226, melanoma cell line SK-MEL-5, renal cancer cell line ACHN): selectively and strongly inhibitory
Log10GI50 MG MID (60 cell line panel; mean over panel): −6.87
Log10LC50 MG MID (60 cell line panel; [2]): −4.26 log10M
Log10TGI50 MG MID (60 cell line panel; [2]): −4.87 log10M
Log10LC50 (BT-549; BT-549 (Breast Cancer), LC50: PG=−50): −4.31 log10M
Log10TGI50 (BT-549; BT-549 (Breast Cancer), TGI: PG=0): −4.73 log10M
Log10GI50 (BT-549; Breast Cancer, BT-549): −7.11
Log10GI50 (MDA-MB231/ATCC; Breast Cancer, MDA-MB231/ATCC): −5.40
Log10LC50 (MDA-MB231/ATCC; MDA-MB231/ATCC (Breast Cancer), LC50: PG=−50): >−4.00 log10M
Log10TGI50 (MDA-MB231/ATCC; MDA-MB231/ATCC (Breast Cancer), TGI: PG=0): −4.33 log10M
Log10TGI50 (NCI-H522; NCI-H522 (Non-Small Cell Lung Cancer), TGI: PG=0): −4.88 log10M
Log10LC50 (NCI-H522; NCI-H-522 (Non-Small Cell Lung Cancer), LC50: PG=−50): −4.40 log10M
Log10GI50 (NCI-H522; Non-Small Cell Lung Cancer, NCI-H522): −7.53
Log10LC50 (A549/ATCC; A549/ATCC (Non-Small Cell Lung Cancer), LC50: PG=−50): −4.11 log10M
Log10TGI50 (A549/ATCC; A549/ATCC (Non-Small Cell Lung Cancer), TGI: PG=0): −4.71 log10M
Log10GI50 (A549/ATCC; Non-Small Cell Lung Cancer, A549/ATCC): −7.29
Log10LC50 (NCI-H322M; NCI-H322M (Non-Small Cell Lung Cancer), LC50: PG=−50): −4.29 log10M
Log10TGI50 (NCI-H322M; NCI-H322M (Non-Small Cell Lung Cancer), TGI: PG=0): −4.63 log10M
Log10GI50 (NCI-H322M; Non-Small Cell Lung Cancer, NCI-H322M): −4.97
Log10GI50 (UO-31; Renal Cancer, UO-31): −7.46
Log10LC50 (UO-31; UO-31 (Renal Cancer), LC50: PG=−50): −5.14 log10M
Log10TGI50 (UO-31; UO-31 (Renal Cancer), TGI: PG=0): −5.77 log10M
Log10GI50 (HCT-15; Colon Cancer, HCT-15): <−8.00
Log10LC50 (HCT-15; HCT-15 (Colon Cancer), LC50: PG=−50): −4.06 log10M
Log10TGI50 (HCT-15; HCT-15 (Colon Cancer), TGI: PG=0): −4.78 log10M
Log10GI50 (SF-268; CNS Cancer, SF-268): −5.40
Log10LC50 (SF-268; SF-268 (CNS Cancer), LC50: PG=−50): −4.23 log10M
Log10TGI50 (SF-268; SF-268 (CNS Cancer), TGI: PG=0): −4.63 log10M
Log10GI50 (HCT-116; Colon Cancer, HCT-116): <−8.00
Log10LC50 (HCT-116; HCT-116 (Colon Cancer), LC50: PG=−50): −4.57 log10M
Log10LC50 (ACHN; ACHN (Renal Cancer), LC50: PG=−50): −4.30 log10M
Log10TGI50 (ACHN; ACHN (Renal Cancer), TGI: PG=0): −4.76 log10M
Log10GI50 (ACHN; Renal Cancer, ACHN): −7.12
Log10GI50 (HT29; Colon Cancer, HT29): −7.75
Log10LC50 (HT29; HT29 (Colon Cancer), LC50: PG=−50): >−4.00 log10M
Log10TGI50 (HT29; HT29 (Colon Cancer), TGI: PG=0): −4.67 log10M
Log10LC50 (OVCAR-3; OVCAR-3 (Ovarian Cancer), LC50: PG=−50): −4.42 log10M
Log10TGI50 (OVCAR-3; OVCAR-3 (Ovarian Cancer), TGI: PG=0): −4.92 log10M
Log10GI50 (OVCAR-3; Ovarian Cancer, OVCAR-3): −7.68
IC50 [1]: below one nM
antimalarial potency in vitro relative to artemisinin [1]: 10 times
IC50 ([1]; Table I, NF54 strain, read-out: IC50): 0.87 nM
Log10GI50 (NCI/ADR-RES; Breast Cancer, NCI/ADR-RES): −7.45
Log10LC50 (NCI/ADR-RES; NCI/ADR-RES (Breast Cancer), LC50: PG=−50): −4.52 log10M
Log10TGI50 (NCI/ADR-RES; NCI/ADR-RES (Breast Cancer), TGI: PG=0): −6.41 log10M
